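Exposure lasted 48 hours, with cells grown in 96-well plates and compounds tested at five concentrations. Here, GI50 denotes the concentration required for 50% inhibition of growth.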 The source made the active and inactive calls. Cut-off read from the data, not from the text of the source: active = GI50 up to about 1.1 µM and inactive = higher.
How the values were obtained:
Test in all cases: growth of human tumour cells (NCI), 48 h
CCRF-CEM = test system: CCRF-CEM
HCT-116 = test system: HCT-116
HOP-62 = test system: HOP-62
M14 = test system: M14
NCI-H522 = test system: NCI-H522
OVCAR-5 = test system: OVCAR-5
RXF 393 = test system: RXF 393
SF-268 = test system: SF-268
SF-295 = test system: SF-295
SF-539 = test system: SF-539
SK-OV-3 = test system: SK-OV-3
SNB-19 = test system: SNB-19
UACC-257 = test system: UACC-257
SR = test system: SR
HOP-92 = test system: HOP-92

Measured: GI50

CCOC(=O)c1nc2ccc([N+](=O)[O-])cc2c2c1CCO2
inactive: CCRF-CEM > 100 µM | HCT-116 > 100 µM | HOP-62 > 100 µM | M14 > 100 µM | NCI-H522 92.3 µM | OVCAR-5 > 100 µM | RXF 393 > 100 µM | SF-268 > 100 µM | SF-295 > 100 µM | SF-539 > 100 µM | SK-OV-3 > 100 µM | SNB-19 > 100 µM | UACC-257 > 100 µM

Cc1ccc(N2C(=O)/C(=C/c3ccc(N(CCC#N)CCC#N)cc3)N=C2COc2ccc(Cl)cc2Cl)cc1
inactive: CCRF-CEM > 100 µM | HCT-116 > 100 µM | HOP-62 > 100 µM | M14 > 100 µM | NCI-H522 > 100 µM | OVCAR-5 > 100 µM | RXF 393 > 100 µM | SF-268 > 100 µM | SF-295 > 100 µM | SF-539 > 100 µM | SK-OV-3 > 100 µM | SNB-19 > 100 µM | SR > 100 µM | UACC-257 > 100 µM

O=C1CCC(=O)C(C(=O)CCC(=O)Nc2ccc(Cl)cc2)C1 (stereo not given)
inactive: CCRF-CEM > 100 µM | HCT-116 > 100 µM | HOP-92 > 100 µM | M14 > 100 µM | NCI-H522 > 100 µM | OVCAR-5 > 100 µM | SF-268 > 100 µM | SF-295 > 100 µM | SF-539 > 100 µM | SK-OV-3 > 100 µM | SNB-19 > 100 µM | UACC-257 > 100 µM

C/N=c1\ss/c(=N\C(=S)N(C)C)n1C1CCCCC1
inactive: CCRF-CEM > 31.6 µM | HCT-116 > 10 µM | HOP-62 > 100 µM | HOP-92 > 10 µM | M14 > 10 µM | NCI-H522 > 31.6 µM | OVCAR-5 > 31.6 µM | RXF 393 > 31.6 µM | SF-268 > 31.6 µM | SF-295 > 31.6 µM | SF-539 > 100 µM | SK-OV-3 24.2 µM | SNB-19 > 31.6 µM | UACC-257 > 31.6 µM

Oc1cc(Cl)ncn1
inactive: CCRF-CEM > 100 µM | HCT-116 > 100 µM | HOP-62 > 100 µM | M14 > 100 µM | NCI-H522 > 100 µM | OVCAR-5 > 100 µM | SF-268 > 100 µM | SF-295 > 100 µM | SK-OV-3 > 100 µM | SNB-19 > 100 µM | UACC-257 > 100 µM

O=C(O)CCC(NC(=O)c1ccc(Nc2nc3cc(C(F)(F)F)ccc3nc2-c2ccccc2)cc1)C(=O)O (stereo not given)
inactive: CCRF-CEM 97.3 µM | HCT-116 71 µM | HOP-62 > 74.6 µM | HOP-92 > 52.6 µM | NCI-H522 35.6 µM | OVCAR-5 63.5 µM | RXF 393 26.5 µM | SF-268 > 100 µM | SF-295 20.4 µM | SF-539 > 84.7 µM | SK-OV-3 > 100 µM | SNB-19 > 100 µM | UACC-257 > 100 µM

CCOC(=O)c1cnc2sc3ccc4ccccc4c3n2c1=O
inactive: CCRF-CEM 25.1 µM | HCT-116 41.4 µM | HOP-62 > 100 µM | HOP-92 28.1 µM | M14 81.1 µM | OVCAR-5 > 100 µM | RXF 393 > 100 µM | SF-268 92.7 µM | SF-295 58.9 µM | SF-539 30.1 µM | SK-OV-3 78.5 µM | SNB-19 > 100 µM | SR 40.1 µM | UACC-257 87.9 µM

CC(C)CCS(=O)(=O)OCCCCOS(=O)(=O)CCC(C)C
inactive: CCRF-CEM > 100 µM | HCT-116 > 100 µM | HOP-62 13.9 µM | M14 16.1 µM | NCI-H522 > 100 µM | RXF 393 > 100 µM | SF-268 > 100 µM | SF-295 > 100 µM | SF-539 > 100 µM | SK-OV-3 > 100 µM | SNB-19 > 100 µM | SR > 100 µM | UACC-257 > 100 µM

COc1ccc(Oc2ccccc2N)cc1
inactive: CCRF-CEM 10.7 µM | HCT-116 17.2 µM | HOP-62 35.2 µM | HOP-92 96.2 µM | M14 58.7 µM | OVCAR-5 48.6 µM | RXF 393 19.8 µM | SF-268 42.1 µM | SF-295 26.1 µM | SF-539 20.2 µM | SK-OV-3 > 100 µM | SR 18.3 µM | UACC-257 57.4 µM

CC1CN1c1c(C(=O)/C=C/c2ccc(F)cc2)c(-c2ccccc2)nn(C)c1=O (stereo not given)
inactive: CCRF-CEM 13.8 µM | HCT-116 13.5 µM | HOP-62 23.8 µM | HOP-92 6.58 µM | M14 16.9 µM | NCI-H522 > 10 µM | OVCAR-5 12.3 µM | RXF 393 10.3 µM | SF-268 16.3 µM | SF-295 16.2 µM | SF-539 > 10 µM | SK-OV-3 > 10 µM | SNB-19 16 µM | UACC-257 14.2 µM

COc1cc2c(cc1OC)C(C(c1ccccc1)c1ccccc1)N(C)CC2 (stereo not given)
inactive: CCRF-CEM 64.7 µM | HCT-116 > 58.6 µM | HOP-62 > 100 µM | HOP-92 29.2 µM | NCI-H522 74.1 µM | OVCAR-5 > 100 µM | RXF 393 20 µM | SF-268 > 100 µM | SF-295 > 75.9 µM | SF-539 > 100 µM | SK-OV-3 79.3 µM | SNB-19 > 100 µM | UACC-257 32.9 µM

COc1ccc2c(c1)[n+]([O-])c(-c1ccc(C)cc1)c(N)[n+]2[O-]
inactive: HCT-116 > 100 µM | HOP-62 > 100 µM | HOP-92 > 100 µM | M14 52.5 µM | NCI-H522 16.3 µM | OVCAR-5 66.5 µM | SF-295 > 100 µM | SF-539 86.1 µM | SK-OV-3 > 100 µM | SNB-19 > 100 µM | SR > 100 µM | UACC-257 23.6 µM

N#CC1(C#N)C(c2ccc(C3C(C#N)(C#N)C3(C#N)C#N)cc2)C1(C#N)C#N
inactive: CCRF-CEM > 100 µM | HOP-62 > 100 µM | HOP-92 > 100 µM | M14 > 100 µM | NCI-H522 58.3 µM | OVCAR-5 > 100 µM | RXF 393 > 100 µM | SF-268 > 100 µM | SF-295 > 100 µM | SF-539 > 100 µM | SK-OV-3 > 100 µM | SNB-19 > 100 µM | UACC-257 > 100 µM

O=C1C=C2SC3C[C@@]24CC1[N+]1=c2c4c(c(O)c4c2=C(C=N4)CC1)N3
inactive: CCRF-CEM 2 µM | HCT-116 1.81 µM | HOP-62 17.8 µM | HOP-92 > 100 µM | NCI-H522 1.58 µM | OVCAR-5 2.17 µM | RXF 393 1.99 µM | SF-268 1.45 µM | SF-295 3.43 µM | SF-539 1.9 µM | SK-OV-3 2.96 µM | SNB-19 5.31 µM | UACC-257 1.7 µM

Oc1cc(O)cc(/C=C/c2ccc(O)c(O)c2)c1 [PICEATANNOL]
inactive: CCRF-CEM 4.32 µM | HCT-116 7.45 µM | HOP-62 16.3 µM | HOP-92 12.3 µM | NCI-H522 2.75 µM | OVCAR-5 5.06 µM | RXF 393 8.77 µM | SF-268 8.59 µM | SF-295 16.5 µM | SF-539 8.91 µM | SK-OV-3 18.9 µM | SNB-19 24.8 µM | UACC-257 > 76.6 µM

From ChEMBL document CHEMBL1201862, “PubChem BioAssay data set” (2004)
